Columns and labels:
[1] = molecular target: T1, recombinant guanylate cyclase reporter cell line (Rattus norvegicus, UniProt P19686+P20595); experiment: Action on recombinant guanylate cyclase reporter cell line; format: cell-based
T1 construct: expressed in transfected cells
T1 sequence (P20595 1-619): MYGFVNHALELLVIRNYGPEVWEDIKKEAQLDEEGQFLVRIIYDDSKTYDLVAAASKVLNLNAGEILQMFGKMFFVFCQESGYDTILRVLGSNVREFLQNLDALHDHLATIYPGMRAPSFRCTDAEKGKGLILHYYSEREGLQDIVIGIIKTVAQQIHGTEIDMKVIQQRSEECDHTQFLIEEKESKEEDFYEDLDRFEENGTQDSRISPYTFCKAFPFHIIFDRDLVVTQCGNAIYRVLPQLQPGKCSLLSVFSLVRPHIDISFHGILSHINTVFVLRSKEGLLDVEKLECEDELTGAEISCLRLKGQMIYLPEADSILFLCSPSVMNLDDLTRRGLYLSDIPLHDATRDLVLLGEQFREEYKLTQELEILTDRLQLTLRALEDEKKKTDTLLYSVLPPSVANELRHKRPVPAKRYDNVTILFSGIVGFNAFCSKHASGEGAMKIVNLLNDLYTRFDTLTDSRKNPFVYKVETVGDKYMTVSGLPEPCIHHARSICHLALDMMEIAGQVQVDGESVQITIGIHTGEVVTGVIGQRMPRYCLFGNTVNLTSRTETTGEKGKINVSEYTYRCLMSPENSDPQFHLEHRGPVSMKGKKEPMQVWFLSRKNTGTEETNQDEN
T1 sequence (P19686 1-690): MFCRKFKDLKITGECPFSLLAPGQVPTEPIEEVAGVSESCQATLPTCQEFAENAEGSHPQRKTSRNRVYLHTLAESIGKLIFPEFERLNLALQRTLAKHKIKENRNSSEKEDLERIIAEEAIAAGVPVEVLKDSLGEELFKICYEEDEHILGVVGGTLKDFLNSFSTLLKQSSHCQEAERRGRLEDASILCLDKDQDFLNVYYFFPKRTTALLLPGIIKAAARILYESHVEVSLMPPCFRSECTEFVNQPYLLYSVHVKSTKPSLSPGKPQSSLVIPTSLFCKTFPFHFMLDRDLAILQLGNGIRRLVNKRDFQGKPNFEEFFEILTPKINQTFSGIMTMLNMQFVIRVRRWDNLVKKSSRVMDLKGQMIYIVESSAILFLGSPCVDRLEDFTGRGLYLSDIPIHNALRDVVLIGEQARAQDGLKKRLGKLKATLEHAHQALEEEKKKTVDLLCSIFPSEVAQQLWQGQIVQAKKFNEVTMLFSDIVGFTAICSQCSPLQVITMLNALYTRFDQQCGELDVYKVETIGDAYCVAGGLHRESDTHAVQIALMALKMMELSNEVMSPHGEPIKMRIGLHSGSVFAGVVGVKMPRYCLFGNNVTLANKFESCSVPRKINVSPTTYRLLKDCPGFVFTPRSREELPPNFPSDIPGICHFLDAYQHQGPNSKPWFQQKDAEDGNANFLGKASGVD
Method: B-2. Action on Recombinant Guanylate Cyclase Reporter Cell Line
The cellular action of the compounds according to the invention is determined on a recombinant guanylate cyclase reporter cell line, as described in F. Wunder et al., Anal. Biochem. 339, 104-112 (2005).

[2] = molecular target: T2, human phosphodiesterase 5 (PDE-5) (Homo sapiens, UniProt O76074); experiment: Inhibition of human phosphodiesterase 5 (PDE-5), SPA assay; format: biochemical; details: PDE-5 preparation from human platelets, [8-3H]cGMP substrate
T2 construct: PDE-5 preparations are obtained from human platelets by lysis; from tissue; host or cells: human platelets
Method: B-6. Inhibition of Human Phosphodiesterase 5 (PDE-5)
PDE-5 preparations are obtained from human platelets by lysis (Microfluidizer®, 800 bar, 3 passages), followed by centrifugation (75000 g, 60 min, 4° C.) and ion-exchange chromatography of the supernatant on a Mono Q 10/10 column (linear sodium chloride gradient, elution with a 0.2-0.3M solution of sodium chloride in buffer (20 mM Hepes pH 7.2, 2 mM magnesium chloride). Fractions that have PDE-5 activity are combined (PDE-5 preparation) and stored at −80° C.
For determining their in-vitro action on human PDE-5, the test substances are dissolved in 100% DMSO and serial dilutions are prepared. Typically, dilution series (1:3) from 200 μM to 0.091 μM are prepared (resultant final concentrations in the test: 4 μM to 0.0018 μM). In each case 2 μL of the diluted solutions of the substance are put in the wells of microtitre plates (Isoplate-96/200W; Perkin-Elmer). Then 50 μL of a dilution of the PDE-5 preparation described above is added. The dilution of the PDE-5 preparation is selected so that during subsequent incubation less than 70% of the substrate is reacted (typical dilution: 1:100; dilution buffer: 50 mM Tris/hydrochloric acid pH 7.5, 8.3 mM magnesium chloride, 1.7 mM EDTA, 0.2% BSA). The substrate [8-^3H]cyclic guanosine-3′,5′-monophosphate (1 μCi/μL; Perkin-Elmer) is diluted 1:2000 with assay buffer (50 mM Tris/hydrochloric acid pH 7.5, 8.3 mM magnesium chloride, 1.7 mM EDTA) to a concentration of 0.0005 μCi/μL. The enzyme reaction is finally started by adding 50 μL (0.025 μCi) of the diluted substrate. The test preparations are incubated for 60 min at room temperature and the reaction is stopped by adding 25 μL of a suspension of 18 mg/mL of Yttrium Scintillation Proximity Beads in water (phosphodiesterase beads for SPA assays, RPNQ 0150, Perkin-Elmer). The microtitre plates are sealed with film and left to stand for 60 min at room temperature. Then the plates are measured for 30 s per well in a Microbeta scintillation counter (Perkin-Elmer). IC50 values are determined on the basis of the graphs plotted of the substance concentration versus the percentage PDE-5 inhibition.

Structure (SMILES)	MEC (minimal effective concentration) [1]	IC50 [2]
CC1(C)C(=O)Nc2nc(-c3nn(Cc4ccccc4F)c4ncccc34)nc(NC[C@H]3CNC(=O)C3)c21 [Example 66, 2-[1-(2-fluorobenzyl)-1H-pyrazolo[3,4-b]pyridin-3-yl]-5,5-dimethyl-4-{[(5-oxopyrrolidin-3-yl)methyl]amino}-5,7-dihydro-6H-pyrrolo[2,3-d]pyrimidin-6-one]	0.1 μm	16 nM
CC1(C)CCN(c2nc(-c3nn(Cc4ccccc4F)c4ncccc34)nc3c2C(C)(C)C(=O)N3)CC1 [Example 68, 4-(4,4-dimethylpiperidin-1-yl)-2-[1-(2-fluorobenzyl)-1H-pyrazolo[3,4-b]pyridin-3-yl]-5,5-dimethyl-5,7-dihydro-6H-pyrrolo[2,3-d]pyrimidin-6-one]	0.1 μm	35 nM
CC1(C)C(=O)Nc2nc(-c3nn(Cc4ccccc4F)c4ncccc34)nc(Nc3ccncc3)c21 [Example 69, 2-[1-(2-fluorobenzyl)-1H-pyrazolo[3,4-b]pyridin-3-yl]-5,5-dimethyl-4-(pyridin-4-ylamino)-5,7-dihydro-6H-pyrrolo[2,3-d]pyrimidin-6-one]	0.3 μm	46 nM
CN1CCN(c2nc(-c3nn(Cc4ccccc4F)c4ncccc34)nc3c2C(C)(C)C(=O)N3)CC1 [Example 70, 2-[1-(2-fluorobenzyl)-1H-pyrazolo[3,4-b]pyridin-3-yl]-5,5-dimethyl-4-(4-methylpiperazin-1-yl)-5,7-dihydro-6H-pyrrolo[2,3-d]pyrimidin-6-one]	0.03 μm	80 nM
CCOCCCNc1nc(-c2nn(Cc3ccccc3F)c3ncccc23)nc2c1C(C)(C)C(=O)N2 [Example 71, 4-[(3-ethoxypropyl)amino]-2-[1-(2-fluorobenzyl)-1H-pyrazolo[3,4-b]pyridin-3-yl]-5,5-dimethyl-5,7-dihydro-6H-pyrrolo[2,3-d]pyrimidin-6-one]	0.01 μm	42 nM
CC1(C)C(=O)Nc2nc(-c3nn(Cc4ccccc4F)c4ncccc34)nc(N3CCOCC3)c21 [Example 72, 2-[1-(2-fluorobenzyl)-1H-pyrazolo[3,4-b]pyridin-3-yl]-5,5-dimethyl-4-(morpholin-4-yl)-5,7-dihydro-6H-pyrrolo[2,3-d]pyrimidin-6-one]	0.1 μm	110 nM
CC1(C)C(=O)Nc2nc(-c3nn(Cc4ccccc4F)c4ncccc34)nc(NCCC(N)=O)c21 [Example 73, N^3-{2-[1-(2-fluorobenzyl)-1H-pyrazolo[3,4-b]pyridin-3-yl]-5,5-dimethyl-6-oxo-6,7-dihydro-5H-pyrrolo[2,3-d]pyrimidin-4-yl}-beta-alaninamide]	0.3 μm	16 nM
COCCCNc1nc(-c2nn(Cc3ccccc3F)c3ncccc23)nc2c1C(C)(C)C(=O)N2 [Example 74, 2-[1-(2-fluorobenzyl)-1H-pyrazolo[3,4-b]pyridin-3-yl]-4-[(3-methoxypropyl)amino]-5,5-dimethyl-5,7-dihydro-6H-pyrrolo[2,3-d]pyrimidin-6-one]	0.01 μm	110 nM
COCCN(C)c1nc(-c2nn(Cc3ccccc3F)c3ncccc23)nc2c1C(C)(C)C(=O)N2 [Example 75, 2-[1-(2-fluorobenzyl)-1H-pyrazolo[3,4-b]pyridin-3-yl]-4-[(2-methoxyethyl)(methyl)amino]-5,5-dimethyl-5,7-dihydro-6H-pyrrolo[2,3-d]pyrimidin-6-one]	0.03 μm	210 nM
CC1(C)C(=O)Nc2nc(-c3nn(Cc4ccccc4F)c4ncccc34)nc(N3CCC(F)(F)C3)c21 [Example 76, 4-(3,3-difluoropyrrolidin-1-yl)-2-[1-(2-fluorobenzyl)-1H-pyrazolo[3,4-b]pyridin-3-yl]-5,5-dimethyl-5,7-dihydro-6H-pyrrolo[2,3-d]pyrimidin-6-one]	0.03 μm	130 nM
CC1(C)C(=O)Nc2nc(-c3nn(Cc4ccccc4F)c4ncccc34)nc(NCc3cccc(F)c3)c21 [Example 78, 4-[(3-fluorobenzyl)amino]-2-[1-(2-fluorobenzyl)-1H-pyrazolo[3,4-b]pyridin-3-yl]-5,5-dimethyl-5,7-dihydro-6H-pyrrolo[2,3-d]pyrimidin-6-one]	0.03 μm	330 nM
CC1(C)C(=O)Nc2nc(-c3nn(Cc4ccccc4F)c4ncccc34)nc(N[C@@H]3CCCNC3=O)c21 [Example 81, 2-[1-(2-fluorobenzyl)-1H-pyrazolo[3,4-b]pyridin-3-yl]-5,5-dimethyl-4-[(2-oxopiperidin-3-yl)amino]-5,7-dihydro-6H-pyrrolo[2,3-d]pyrimidin-6-one]	0.03 μm	290 nM
CC1(C)C(=O)Nc2nc(-c3nn(Cc4ccccc4F)c4ncccc34)nc(NCc3ccccc3)c21 [Example 83, 4-(benzylamino)-2-[1-(2-fluorobenzyl)-1H-pyrazolo[3,4-b]pyridin-3-yl]-5,5-dimethyl-5,7-dihydro-6H-pyrrolo[2,3-d]pyrimidin-6-one]	0.03 μm	230 nM
CC1(C)C(=O)Nc2nc(-c3nn(Cc4ccccc4F)c4ncccc34)nc(NCc3cccnc3)c21 [Example 84, 2-[1-(2-fluorobenzyl)-1H-pyrazolo[3,4-b]pyridin-3-yl]-5,5-dimethyl-4-[(pyridin-3-ylmethyl)amino]-5,7-dihydro-6H-pyrrolo[2,3-d]pyrimidin-6-one]	0.1 μm	19 nM
CC1(C)C(=O)Nc2nc(-c3nn(Cc4ccccc4F)c4ncccc34)nc(NCc3ccncc3)c21 [Example 85, 2-[1-(2-fluorobenzyl)-1H-pyrazolo[3,4-b]pyridin-3-yl]-5,5-dimethyl-4-[(pyridin-4-ylmethyl)amino]-5,7-dihydro-6H-pyrrolo[2,3-d]pyrimidin-6-one]	0.3 μm	4.2 nM
CC1(C)C(=O)Nc2nc(-c3nn(Cc4ccccc4F)c4ncccc34)nc(NC[C@H]3CCCO3)c21 [Example 86, 2-[1-(2-fluorobenzyl)-1H-pyrazolo[3,4-b]pyridin-3-yl]-5,5-dimethyl-4-[(tetrahydrofuran-2-ylmethyl)amino]-5,7-dihydro-6H-pyrrolo[2,3-d]pyrimidin-6-one]	0.01 μm	330 nM

Source: US8859569B2, “Substituted annellated pyrimidines and use thereof” (Bayer Pharma Aktiengesellschaft, priority 2011, dated 2014)
